Read-outs that look alike come from different tables or passages of the source.
Columns and labels:
Assay in all cases: cells
AsPC-1 = system: AsPC-1; design: Viability of PDAC cell lines, ATPlite luminescence, 11-dose single-agent curve fit; conditions: Homo sapiens, ASPC1, 72 h, read-out: EC50 [nM]
Procedure, shortened: (§1)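 screening used cells plated at 1000 to 5000 per well one day before treatment. Final DMSO was 0.2%. Each plate held untreated negative-control wells and 5 µM staurosporine positive-control wells.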

Colo-357 = system: Colo-357; design: Viability of PDAC cell lines, ATPlite luminescence, 11-dose single-agent curve fit; conditions: Homo sapiens, COLO357, 72 h, read-out: EC50 [nM]
Procedure, shortened: as §1

PANC-1 = system: PANC-1; design: Viability of PDAC cell lines, ATPlite luminescence, 11-dose single-agent curve fit; conditions: Homo sapiens, PANC-1, 72 h, read-out: EC50 [nM]
Procedure, shortened: as §1

PaTu-8988-T [1] = system: PaTu-8988-T; design: Viability of PDAC cell lines, ATPlite luminescence, 11-dose single-agent curve fit; conditions: Homo sapiens, PaTu 8988t, 72 h, read-out: EC50 [nM]
Procedure, shortened: as §1

HuP-T4 = system: HuP-T4; design: Viability of PDAC cell lines, ATPlite luminescence, 11-dose single-agent curve fit; conditions: Homo sapiens, HuP-T4, 72 h, read-out: EC50 [nM]
Procedure, shortened: as §1

Dan-G [2] = system: Dan-G; design: Viability of PDAC cell lines, ATPlite luminescence, 11-dose single-agent curve fit; conditions: 72 h, read-out: EC50 [nM]
Procedure, shortened: as §1

Capan-1 = system: Capan-1; design: Viability of PDAC cell lines, ATPlite luminescence, 11-dose single-agent curve fit; conditions: Homo sapiens, CAPAN-1, 72 h, read-out: EC50 [nM]
Procedure, shortened: as §1

HPDE = system: HPDE; design: Viability of PDAC cell lines, ATPlite luminescence, 11-dose single-agent curve fit; conditions: HPDE, 72 h, read-out: EC50 [nM]
Procedure, shortened: as §1

MiaPaCa-2 [3] = system: MiaPaCa-2; design: Viability of PDAC cell lines, ATPlite luminescence, 11-dose single-agent curve fit; conditions: Homo sapiens, MIA PaCa-2, 72 h, read-out: EC50 [nM]
Procedure, shortened: as §1

BxPC-3 [4] = system: BxPC-3; design: ATPlite luminescence viability of PDAC cell lines, 11-dose single-agent curves, 4-parameter fit; conditions: Homo sapiens, BXPC-3, 72 h, read-out: EC50 [nM]
Description: (§2) Afterward, small amounts were transferred to 384-well intermediate plates (Greiner Bio-One GmbH, Germany). […] For drug combination screening, 1000 to 5000 cells were seeded into 384-well plates (CulturPlate™, Perkin Elmer, MA, USA) using a Multidrop™ Combi Reagent Dispenser (Thermo Scientific, MA, USA) in 50 µl medium per well 24 h prior to drug treatment (seeding densities see Appendix Table S1). […] The final DMSO concentration in each well was 0.2%. […] Eight wells per plate without library drug served as negative controls, and sixteen wells per plate containing 5 µM Staurosporine served as positive controls. […] Next, we analyzed the drug sensitivity of immortalized duct cell line HPDE to detect effects unrelated to pancreatic cancer.

Suit2-07 [5] = system: Suit2-07; design: ATPlite luminescence viability of PDAC cell lines, 11-dose single-agent curves, 4-parameter fit; conditions: 72 h, read-out: EC50 [nM]
Description: as §2

PSN-1 [6] = system: PSN-1; design: ATPlite luminescence viability of PDAC cell lines, 11-dose single-agent curves, 4-parameter fit; conditions: Homo sapiens, PSN1, 72 h, read-out: EC50 [nM]
Description: as §2

FAMPAC [7] = system: FAMPAC; design: ATPlite luminescence viability of PDAC cell lines, 11-dose single-agent curves, 4-parameter fit; conditions: 72 h, read-out: EC50 [nM]
Description: as §2

BxPC-3 [8] = system: BxPC-3; design: Viability of PDAC cell lines, ATPlite luminescence, 11-dose single-agent curve fit; conditions: Homo sapiens, BXPC-3, 72 h, read-out: EC50 [nM]
Procedure, shortened: as §1

Suit2-07 [9] = system: Suit2-07; design: Viability of PDAC cell lines, ATPlite luminescence, 11-dose single-agent curve fit; conditions: 72 h, read-out: EC50 [nM]
Procedure, shortened: as §1

PSN-1 [10] = system: PSN-1; design: Viability of PDAC cell lines, ATPlite luminescence, 11-dose single-agent curve fit; conditions: Homo sapiens, PSN1, 72 h, read-out: EC50 [nM]
Procedure, shortened: as §1

FAMPAC [11] = system: FAMPAC; design: Viability of PDAC cell lines, ATPlite luminescence, 11-dose single-agent curve fit; conditions: 72 h, read-out: EC50 [nM]
Procedure, shortened: as §1

PaTu-8988-T [12] = system: PaTu-8988-T; design: ATPlite luminescence viability of PDAC cell lines, 11-dose single-agent curves, 4-parameter fit; conditions: Homo sapiens, PaTu 8988t, 72 h, read-out: EC50 [nM]
Description: as §2

Dan-G [13] = system: Dan-G; design: ATPlite luminescence viability of PDAC cell lines, 11-dose single-agent curves, 4-parameter fit; conditions: 72 h, read-out: EC50 [nM]
Description: as §2

MiaPaCa-2 [14] = system: MiaPaCa-2; design: ATPlite luminescence viability of PDAC cell lines, 11-dose single-agent curves, 4-parameter fit; conditions: Homo sapiens, MIA PaCa-2, 72 h, read-out: EC50 [nM]
Description: as §2

For `CC(C)(C)c1nc(-c2cccc(NS(=O)(=O)c3c(F)cccc3F)c2F)c(-c2ccnc(N)n2)s1` [Dabrafenib], the EC50 (AsPC-1) was 975 nM, the EC50 (Colo-357) was 9480 nM and the EC50 (PANC-1) was 5600 nM. It also gave an EC50 (PaTu-8988-T [1]) of 749 nM, an EC50 (HuP-T4) of 1830 nM and an EC50 (Dan-G [2]) of 274 nM. It also gave an EC50 (Capan-1) of 50.5 nM, an EC50 (HPDE) of 197 nM and an EC50 (MiaPaCa-2 [3]) of 971 nM. The EC50 (BxPC-3 [4]) was 348 nM, the EC50 (Suit2-07 [5]) was 883 nM and the EC50 (PSN-1 [6]) was 341 nM. The EC50 (FAMPAC [7]) was 428 nM.

In the case of `COc1cc2nccc(Oc3ccc(NC(=O)C4(C(=O)Nc5ccc(F)cc5)CC4)cc3)c2cc1OC` [Cabozantinib], the EC50 (AsPC-1) is reported as over 10000 nM, the EC50 (Colo-357) is reported as 4380 nM and the EC50 (PANC-1) is reported as 3550 nM. It also gave an EC50 (BxPC-3 [8]) of over 10000 nM, an EC50 (Suit2-07 [9]) of over 10000 nM and an EC50 (HuP-T4) of 3810 nM. The EC50 (PSN-1 [10]) was over 10000 nM, the EC50 (Capan-1) was 6600 nM and the EC50 (HPDE) was over 10000 nM. For the same compound, the EC50 (FAMPAC [11]) was over 10000 nM, the EC50 (PaTu-8988-T [12]) was 4020 nM and the EC50 (Dan-G [13]) was over 10000 nM. For the same compound, the EC50 (MiaPaCa-2 [14]) was over 10000 nM.

`N#CCNC(=O)c1ccc(-c2ccnc(Nc3ccc(N4CCOCC4)cc3)n2)cc1` [Momelotinib] was tested, and the EC50 (AsPC-1) was 4110 nM, the EC50 (Colo-357) was 953 nM and the EC50 (PANC-1) was 8650 nM. It also gave an EC50 (HuP-T4) of 2670 nM, an EC50 (Dan-G [2]) of 6780 nM and an EC50 (Capan-1) of 9140 nM. For the same compound, the EC50 (HPDE) was 8470 nM, the EC50 (Suit2-07 [5]) was 5780 nM and the EC50 (PaTu-8988-T [12]) was over 10000 nM. It also gave an EC50 (PSN-1 [6]) of over 10000 nM, an EC50 (MiaPaCa-2 [14]) of over 10000 nM and an EC50 (FAMPAC [7]) of over 10000 nM.

`Cn1cc(C2=C(c3cn(C4CCN(Cc5ccccn5)CC4)c4ccccc34)C(=O)NC2=O)c2ccccc21` [Enzastaurin] gave an EC50 (AsPC-1) of 7970 nM, an EC50 (Colo-357) of 109 nM and an EC50 (PANC-1) of 4980 nM. For the same compound, the EC50 (BxPC-3 [8]) was over 10000 nM, the EC50 (Suit2-07 [9]) was over 10000 nM and the EC50 (PaTu-8988-T [1]) was 5780 nM. The EC50 (HuP-T4) was 2270 nM, the EC50 (Dan-G [2]) was 873 nM and the EC50 (Capan-1) was 401 nM. For the same compound, the EC50 (HPDE) was 9200 nM, the EC50 (MiaPaCa-2 [3]) was over 10000 nM and the EC50 (FAMPAC [11]) was over 10000 nM. The EC50 (PSN-1 [6]) was over 10000 nM.

In the case of `CO[C@H]1C[C@@H]2CC[C@@H](C)[C@@](O)(O2)C(=O)C(=O)N2CCCC[C@H]2C(=O)O[C@H]([C@H](C)C[C@@H]2CC[C@@H](OCCO)[C@H](OC)C2)CC(=O)[C@H](C)/C=C(\C)[C@@H](O)[C@@H](OC)C(=O)[C@H](C)C[C@H](C)/C=C/C=C/C=C/1C` [Certican], the EC50 (AsPC-1) is reported as 0.14 nM, the EC50 (Colo-357) is reported as 238 nM and the EC50 (PANC-1) is reported as 171 nM. The EC50 (BxPC-3 [8]) was 0.09 nM, the EC50 (Suit2-07 [9]) was 2610 nM and the EC50 (PaTu-8988-T [1]) was 0.1 nM. It also gave an EC50 (HuP-T4) of 2.46 nM, an EC50 (Dan-G [2]) of 0.21 nM and an EC50 (PSN-1 [10]) of 0.05 nM. It also gave an EC50 (Capan-1) of 3520 nM, an EC50 (HPDE) of 0.16 nM and an EC50 (MiaPaCa-2 [3]) of 1.84 nM. It also gave an EC50 (FAMPAC [11]) of 5.43 nM.

In the case of `Cc1ccc(Nc2nccc(N(C)c3ccc4c(C)n(C)nc4c3)n2)cc1S(N)(=O)=O` [Pazopanib], the EC50 (AsPC-1) is reported as over 10000 nM, the EC50 (Colo-357) is reported as over 10000 nM and the EC50 (PANC-1) is reported as 913 nM. It also gave an EC50 (BxPC-3 [8]) of over 10000 nM, an EC50 (Suit2-07 [9]) of over 10000 nM and an EC50 (PaTu-8988-T [1]) of 35.4 nM. For the same compound, the EC50 (HuP-T4) was 135 nM, the EC50 (Dan-G [2]) was 4120 nM and the EC50 (PSN-1 [10]) was 8400 nM. It also gave an EC50 (Capan-1) of over 10000 nM, an EC50 (HPDE) of 2410 nM and an EC50 (MiaPaCa-2 [3]) of 3820 nM. The EC50 (FAMPAC [11]) was 5020 nM.

`CC(C)Oc1ccc(-c2nn([C@@H](C)c3oc4ccc(F)cc4c(=O)c3-c3cccc(F)c3)c3ncnc(N)c23)cc1F` [Umbralisib] was tested, and the EC50 (AsPC-1) was 26.5 nM, the EC50 (Colo-357) was 0.12 nM and the EC50 (PANC-1) was 655 nM. The EC50 (BxPC-3 [8]) was 683 nM, the EC50 (Suit2-07 [9]) was 1310 nM and the EC50 (PaTu-8988-T [1]) was 4550 nM. It also gave an EC50 (HuP-T4) of 1370 nM, an EC50 (Dan-G [2]) of 441 nM and an EC50 (PSN-1 [10]) of 62.6 nM. It also gave an EC50 (Capan-1) of 39.7 nM, an EC50 (HPDE) of 6540 nM and an EC50 (MiaPaCa-2 [3]) of over 10000 nM. For the same compound, the EC50 (FAMPAC [11]) was 8790 nM.
